According to patent US10928381B2, “In vitro methods of monitoring autophagy in a human cell using a photoconvertable fluorescent protein linked biomarker” (The Regents of the University of Michigan, priority 2018, dated 2021):

Tests used:
Dendra2-LC3 HEK cells = assay: Native (green, GFP) Dendra2-LC3 intensity and puncta, phase I primary screen readout (T15/T0); assay type: cell-based, human; details: for GFP intensity of native Dendra2-LC3: vs DMSO
Excerpt: Conventional methods for estimating autophagy flux rely upon the assessment of LC3 or other autophagy substrates by Western blotting or immunocytochemistry (Ref. 27; herein incorporated by reference in its entirety); by their very nature, these techniques are static and limited to dead cells. Fluorescence-based methods that use tagged substrates allow visualization of autophagy within living cells, but typically require the overexpression of autophagy target proteins that may disrupt the very process they are intended to measure. To assess autophagy in human cells without compromising or interfering with the pathway, experiments were conducted during development of embodiments herein utilizing CRISPR/Cas9 genome editing (Refs. 29-30; herein incorporated by reference in their entireties) to insert the Dendra2 open reading frame into the MAP1LC3B locus (encoding LC3) of HEK cells (FIG. 2a). A mutated, nickase version of Cas9 (Cas9n) was used that is incapable of making double-stranded DNA breaks, thereby minimizing the risk of non-homologous end joining and unwanted insertions or deletions (Refs. 29, 35; herein incorporated by reference in their entireties). Two separate single guide RNAs (sgRNAs) were designed that recognize sequences just upstream and downstream of the MAP1LC3B start codon, and a homology directed repair (HDR) vector encoding the Dendra2 open reading frame flanked by 400 bp of homologous sequence surrounding the MAP1LC3B start codon (FIG. 2a). Following expression of the sgRNAs, Cas9n and the HDR in HEK cells, colonies were selected based upon green fluorescence and passaged to homogeneity (FIG. 2b). The insertion site was confirmed by DNA sequencing, PCR, and immunocytochemistry using antibodies that recognize LC3. Providing further validation of the insertion, transfection with siRNA directed against the MAP1LC3B locus elicited a significant reduction in Dendra2-LC3 protein levels as measured by western blotting and native GFP fluorescence (FIG. 2c, d). In untreated cells, Dendra2-LC3 fluorescence appears diffuse, as expected (FIG. 3a). […] Second, autophagy induction in these cells is accompanied not only by the formation of puncta, but also by relative decreases in diffuse Dendra2-LC3 fluorescence, as indicated by the model in FIG. 1.
For these studies the potent mTOR inhibitor torin1 (Ref. 36; herein incorporated by reference in its entirety) was selected as a positive control for autophagy induction, and the vacuolar ATPase inhibitor bafilomycin-A1 (Ref. 37; herein incorporated by reference in its entirety) as a positive control for autophagy inhibition. In each case, DMSO served as a vehicle (negative) control. Dendra2-LC3 was photoconverted immediately prior to drug application, and the fluorescence intensity in the green (GFP) and red (RFP) channels was measured at regular intervals for 15 h.
The Z′ value for the effect of torin1 on the normalized GFP intensity, calculated as a ratio of GFP intensity at 15 h to that at 0 h (T15/T0), was 0.63 when the assay was conducted in a 96-well format in our laboratory, and 0.56 when conducted in a 384-well format at the Center for Chemical Genomics (CCG, FIG. 3e), indicative of a robust screening platform (Ref. 38; herein incorporated by reference in its entirety). […] The false negative rate was near zero, ensuring a highly sensitive assay.
The possibility that cell death and toxicity mimics the reduction in GFP intensity that would otherwise denote autophagy induction was also addressed. To avoid confounding from toxicity, the area occupied by cells in each image is calculated using ImageJ software and used as a proxy for cell number; since all wells received the same number of cells, >25% reductions in the area occupied by cells at the end of the experiment indicates toxicity. The formation of Dendra2-LC3 puncta in each condition is scored simultaneously using the ‘analyze particles’ function in ImageJ. […]

[1] = system: Tandem reporter (RFP-GFP-LC3) HeLa cells; assay: Tandem reporter (RFP-GFP-LC3) assay, % of RFP puncta that are GFP positive; assay type: cell-based; details: imaged after 12 hours
Experimental: FIG. 13A-E. Validation of novel autophagy inhibitors with an independent measure of autophagic flux. (FIG. 13A) Tandem reporter (RFP-GFP-LC3) HeLa cells treated with the indicated compounds and imaged after 12 hours in RFP (middle panels) GFP (bottom panels). […] Concentrations used correspond to the lowest dose resulting in the maximum degree of colocalization between GFP and RFP puncta as calculated in (B). These are: 3 nM Bafilomycin, 1 uM Quinacrine, 50 uM 245536, and 100 uM of 254522, 45808, 234794, and 237373. (Scale bar: 50 μm) (FIG. 13B) The percentage of RFP positive puncta that are also GFP positive in tandem reporter HeLa cells was analyzed using Cell Profiler. First GFP (1a) and RFP (1b) images of the same field of cells are uploaded into Cell Profiler. Using the GFP images, nuclei are identified (2a-green outlines) and a nuclear mask (2b) is generated. […] Cellular boundries are identified (3a-purple outlines) and a cellular mask is created. […] Only puncta within this mask will be evaluated in subsequent steps. […] (FIG. 13D) Tandem reporter HeLa cells were imaged once prior to drug treatment and then treated with the lowest dose that produced the maximum response as calculated in (FIG. 13C) and imaged immediately after. […] Each point is calculated by taking the mean % of (GFP+/RFP+ puncta)/(RFP+) from 8 technical replicates. […]

Row | SMILES | Effect on torin1-elicited reduction in GFP intensity (Dendra2-LC3 HEK cells; co-treatment with torin1) | Lowest dose resulting in the maximum degree of colocalization between GFP and RFP puncta [1] [nM] | Formation of Dendra2-LC3 (LC3-positive) puncta (Dendra2-LC3 HEK cells; FPZ 0.5 μM, torin1 1 μM) | GFP intensity of native Dendra2-LC3 (Dendra2-LC3 HEK cells; FPZ 0.5 μM, torin1 1 μM) | GFP intensity of native Dendra2-LC3 (Dendra2-LC3 HEK cells; FPZ 0.5 μM, torin1 1 μM, listed as torin1) | GFP intensity of native Dendra2-LC3 (Dendra2-LC3 HEK cells; FPZ 0.5 μM, torin1 1 μM, listed as torin-1) | Rank among autophagy inducers in phase I (Dendra2-LC3 HEK cells; Prestwick and Enzo collections)
1 | CO/C1=C\C(C)=C\[C@@H](C)[C@@H](O)[C@@H](C)C/C(C)=C/C=C/[C@H](OC)[C@@H]([C@@H](C)[C@@H](O)[C@H](C)[C@@]2(O)C[C@@H](O)[C@H](C)[C@@H](C(C)C)O2)OC1=O [Bafilomycin-A1, bafilomycin-A1] | fully blocked | 3 | – | – | – | – | –
2 | CCC(=O)N1CCN(c2ccc(-n3c(=O)ccc4cnc5ccc(-c6cnc7ccccc7c6)cc5c43)cc2C(F)(F)F)CC1 [Torin1, torin1] | – | – | elicits the formation of LC3-positive puncta | return is prevented | highly significant and durable reduction | reduces the steady-state GFP intensity | rank among the most potent inducers
